Test results published in patent US20140288102A1, “PREVENTION OF RECURRENCES OF URETHRAL STRICTURES FOLLOWING CONVENTIONAL THERAPY” (priority 2007, published 2014).
Values joined by “and” are separate entries in the source; they are usually repeats but may differ in a detail not shown here. Equal values may be shown once. “Also recorded” adds a separate entry of the source.

Key:
[1] = system: New Zealand male rabbits; experiment: Prevention of the onset of urethral strictures after electrocoagulation of the bulbar urethra (Example 1); assay type: in vivo, rabbit
Description: Near-circumferential, 15 mm long electrocoagulation of the bulbar urethra was performed endoscopically on 20 New Zealand male rabbits using a pediatric resectoscope and a round-ended electrocautery. The rabbits were randomized into 2 groups of 10 animals each. The first group received a diet containing 10 mg/kg of Halofuginone initiated 4 days before electrocoagulation and continued for 3 weeks. The second group received a standard chow, free of Halofuginone. Three weeks after electrocoagulation, the rabbits were examined by video urethrocystoscopy and retrograde urethrocystography and subsequently sacrificed for histological examination. The urethra was removed in one piece and fixed in 10% buffered formaldehyde. The histological examination was performed after the specimens were embedded in paraffin and stained with Masson trichrome, hematoxylin-eosin, and Sirius Red (IMEB, Inc., Chicago, Ill.) in order to evaluate fibrosis. With the latter staining method, collagen appears in red.

[2] = system: New Zealand male rabbits; experiment: Prevention of the recurrence of urethral strictures following endoscopic internal urethrotomy (Example 2); assay type: in vivo, rabbit
Description: Near-circumferential, 15 mm long electrocoagulation of the bulbar urethra was performed endoscopically on 48 New Zealand male rabbits using a pediatric resectoscope and a round-ended electrocautery. Three weeks after electrocoagulation, the urethral strictures were evaluated using video urethrocystoscopy and retrograde urethrocystography. […] The urethral lumen was reduced by 70-95% (mean 88.5%). The obtained strictures were 7 to 19 mm in length (mean 11.7). Endoscopic internal urethrotomy was performed on all surviving rabbits using a cold knife, under visual guidance with a 0.028-inch diameter endoscopic guidewire. A single deep incision was made at the 12 o'clock position in all animals. The rabbits were subsequently randomized into 2 groups: one study group receiving Halofuginone for 10 weeks starting on the day of the urethrotomy, and one control group without Halofuginone. The study group was fed on a diet containing 10 mg/kg of Halofuginone, whereas the control group received a normal, Halofuginone-free diet. The rabbits were then monitored and evaluated for urethral strictures if any of the following signs appeared: decrease in 24-hour urine output, anorexia, worsening of general health status with palpable bladder distension. In the absence of any of these signs, the animals were systematically evaluated for urethral strictures 10 weeks after urethrotomy. This evaluation was performed using video urethrocystoscopy and retrograde urethrocystography. Thereafter, the rabbits were sacrificed for histological examination. The entire urethra was removed and fixed in 10% buffered formaldehyde. The histological examination was performed after the specimens had been embedded in paraffin and stained with Masson trichrome, hematoxylin-eosin, and Sirius Red (IMEB, Inc., Chicago, Ill.) in order to evaluate fibrosis. With the latter staining method, collagen appears in red.

[3] = the 2 treated rabbits with significant stricture, 3 weeks after electrocoagulation

Compound: O=C(CC1NCCC[C@H]1O)Cn1cnc2cc(Br)c(Cl)cc2c1=O (stereo partly drawn) [Halofuginone]
- Nr. of urethral strictures (rabbits with significant urethral stricture) ([1]; 10 rabbits, diet containing 10 mg/kg Halofuginone from 4 days before electrocoagulation, continued 3 weeks, evaluated at 3 weeks, control 10 of 10, p<0.001): 2
- number of rabbits with normal urethra ([1]; of 10 treated rabbits, 3 weeks after electrocoagulation): 6
- length of the significant strictures [1, 3]: 10 mm and 8 mm
- reduction in urethral lumen caliber in the significant strictures [1, 3]: 70% and 90%
- histological study of the urethra (fibrosis) ([1]; treated rabbits without significant stricture): only focal alterations, with limited areas of fibrosis alternating with subnormal or normal urethral walls
- narrowing of the urethral lumen ([1]; two other treated rabbits, 3 weeks after electrocoagulation): less than 30%
- retrograde urethrocystogram of the bulbar urethra ([2]; a rabbit of the study group, 10 weeks after internal urethrotomy, FIG. 2B): no recurrent stricture was seen
- Post-urethrotomy recurrent stricture, Nr./total Nr. ([2]; diet containing 10 mg/kg Halofuginone for 10 weeks from day of urethrotomy, control 14/19, P 0.005): 5/18
- Post-urethrotomy recurrent stricture (%) ([2]; diet containing 10 mg/kg Halofuginone for 10 weeks from day of urethrotomy, control 73, P 0.005): 27%
- Nr. according to extent of histological fibrosis: Moderate to severe ([2]; of 18 rabbits, control 2 of 19): 1
- Nr. according to extent of histological fibrosis: Mild or absent ([2]; of 18 rabbits, control 5 of 19): 13
- Nr. according to extent of histological fibrosis: Severe ([2]; of 18 rabbits, control 12 of 19): 4
- histological study of the site of the prior urethrotomy (fibrosis) ([2]; rabbits with no recurrence of stricture, FIG. 3): no fibrosis or minimal fibrosis; also recorded: minimal fibrosis
- Post-urethrotomy recurrent stricture, average length ([2]; recurrent strictures in Halofuginone group, control 11.4): 7.2 mm
- Post-urethrotomy recurrent stricture, average reduction of lumen ([2]; recurrent strictures in Halofuginone group, control 82.9): 92%
- number of rabbits with recurrent stricture diagnosed at the 10-week evaluation ([2]; study group): 2
- number of rabbits that developed no recurrence of urethral stricture ([2]; study group, 18 evaluable rabbits): 13
- number of rabbits with recurrence suspected on clinical signs and confirmed radiologically and endoscopically ([2]; study group, before the 10-week evaluation): 3
